This is an account of results in patent publication US9187458B2, “Cyanoquinoline derivatives” (Tianjin Hemay Bio-Tech Co., LTD., priority 2010, dated 2015).

For test [1], the system named is NCI-N87 cells. Description: NCI-N87 Cell Growth Inhibition Test (MTT Assay). It is filed as cell-based. The settings on record: Homo sapiens, 72 h incubation. The protocol: NCI-N87 Cell Growth Inhibition Test (MTT Assay)
1. Cell strains: NCI-N87 (human gastric carcinoma cell strains);
1. A plate (10 cm) of cells in logarithmic growth phase normally cultured was collected;
2. The culture solution was sucked out. The plate was washed wtih 5 ml of PBS 1-2 times;
3. PBS was sucked out. 1.5 ml of 0.25% pancreatin was added to infiltrate the cells for 1 min;
4. The pancreatin was sucked out. The culture plate was placed in an incubator. Digestion was carried out for about 12 min at 37° C.;
5. 4.5 ml of complete culture solution was added to the culture plate to stop the digestion. The cells were carefully scoured with micropipette (1 ml) to give a uniform cell suspension. The suspension was implanted into a 96-well cell culture disc by 17000 cells/100 μl per well. The culture plate was incubated overnight under 5% CO2 at 37° C. In day 2, 100 μl of culture solution comprising a compound was added in each well, and further incubated for 72 h under 5% CO2 at 37° C.
6. The culture solution was sucked out;
7. 100 μl of serum-free culture solution containing 0.5 mg/ml MTT was added in each well, and incubated for 3 h;
8. The culture solution was carefully sucked out;
9. 100 μl of DMSO was added in each welland vibrated to dissolve;
10. OD values were determined at 490 nM.
1. Calculation of Rrelative Inhibition Ratio The inhibition ratio of a compound on cell growth=(PC−n)/(PC−NC)×100%
IC50: Concentration of a compound where inhibition ratio was 50%. IC50 values were fitted with Origin7.5.

For test [2], the system named is AsPC-1 cells. Kind of test: AsPC-1 Cell Growth Inhibition Test (MTT Assay). The note with it: Homo sapiens, ASPC1, 72 h incubation. It is filed as cell-based. The method, boiled down:
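Human pancreatic cancer AsPC-1 cells seeded at 8000 cells/well, incubated overnight, then exposed to compound for 72 h at 37 °C, 5% CO2. Viability read by MTT (0.5 mg/ml, 3 h), formazan dissolved in DMSO, OD at 490 nm. Inhibition ratio = (PC−n)/(PC−NC)×100%; IC50 = concentration giving 50% inhibition, curve-fitted.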

In test [3] the test system is NCI-H460 cells. Kind of test: NCI-H460 Cell Growth Inhibition Test (MTT Assay). The settings on record: Homo sapiens, 72 h incubation. The format is cell-based. Put shortly: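 Cells seeded at 2500 per well, left overnight, then exposed to compound for 72 h at 37 °C, 5% CO2. Viability by MTT (0.5 mg/ml, 3 h), DMSO-dissolved, OD 490 nm; inhibition ratio = (PC−n)/(PC−NC)×100%, IC50 from curve fit.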

Test [4] has as its system BT-474 cells. Description: BT-474 Cell Growth Inhibition Test (SRB Assay). The settings on record: 70 h incubation; for IC50 / inhibition at 1 µM: Homo sapiens; for inhibition at 1 µM: BT-474, 70 h, read-out: Growth Inhibition Ratio (%); for inhibition at 1 µM / Growth Inhibition Ratio (%): compound 1 μM. It is filed as cell-based, human. Put shortly: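 Human breast tumour BT-474 cells (1×10^5/ml seeding, overnight) exposed to compound 70 h at 37 °C, 5% CO2; TCA-fixed, SRB-stained, dye dissolved in 10 mM Tris and OD read at 570 nm. Inhibition ratio = (PC−n)/(PC−NC)×100%; IC50 is the concentration giving 50% inhibition, from fitted curves.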

The test system of test [5] is Fadu cells. Kind of test: Fadu Cell Growth Inhibition Test (MTT Assay). The format is cell-based. The note with it: Homo sapiens, 72 h incubation. The method, boiled down: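 Fadu head and neck cancer cells in EMEM + 10% FBS, 6000 cells/well, dosed next day and incubated 72 h at 37 °C, 5% CO2. MTT 0.5 mg/ml for 3 h, DMSO solubilization, OD at 490 nm; inhibition ratio from positive and negative controls, IC50 from fitted curve.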

Regarding `Cc1ccc(COc2ccc(Nc3c(C#N)cnc4cc(OC5CCOC5)c(NC(=O)/C=C/CN(C)C)cc34)cc2Cl)cc1` (centres unmarked) [Example 19, (E)-N-(4-(4-(4-METHYLBENZYLOXY)-3-CHLOROPHENYLAMINO)-3-CYANO-7-(TETRAHYDROFURAN-3-YL-OXY)QUINOLIN-6-YL)-4-(DIMETHYLAMINO)-BUT-2-ENAMIDE], the IC50 turned out to be 32 nM in test [1], 621 nM in test [2], 1100 nM in test [3] and 32 nM in test [4].

On to `CN(C)C/C=C/C(=O)Nc1cc2c(Nc3ccc(OCc4ccccc4C#N)c(Cl)c3)c(C#N)cnc2cc1OC1CCOC1` (centres unmarked) [Example 13, (E)-N-(4-(4-(2-CYANOBENZYLOXY)-3-CHLOROPHENYLAMINO)-3-CYANO-7-(TETRAHYDROFURAN-3-YL-OXY)QUINOLIN-6-YL)-4-(DIMETHYLAMINO)-BUT-2-ENAMIDE], for which the IC50 in test [1] came out at 4.4 nM; in test [2], 922 nM; in test [3], 1800 nM; in test [4] it was 11 nM; in test [5] it was 300 nM. The inhibition at 1 µM in test [4] turned out to be 75%.

On to `CN(C)C/C=C/C(=O)Nc1cc2c(Nc3ccc(OCc4ccc(Cl)cc4)c(Cl)c3)c(C#N)cnc2cc1OC1CCOC1` (centres unmarked) [Example 16, (E)-N-(4-(4-(4-CHLOROBENZYLOXY)-3-CHLOROPHENYLAMINO)-3-CYANO-7-(TETRAHYDROFURAN-3-YL-OXY)QUINOLIN-6-YL)-4-(DIMETHYLAMINO)-BUT-2-ENAMIDE], for which the IC50 was 26 nM in test [1], 810 nM in test [2], 1100 nM in test [3] and 35 nM in test [4]. In test [4], the inhibition at 1 µM came out at 72%.

For `CN(C)C/C=C/C(=O)Nc1cc2c(Nc3ccc(F)c(Cl)c3)c(C#N)cnc2cc1OC1CCOC1` (centres unmarked) [Example 4, (E)-N-(4-(3-CHLORO-4-FLUOROPHENYLAMINO)-3-CYANO-7-(TETRAHYDROFURAN-3-YL-OXY)QUINOLIN-6-YL)-4-(DIMETHYLAMINO)-BUT-2-ENAMIDE], the IC50 was 79 nM in test [1]; 1000 nM in test [2]; 1600 nM in test [3]; 140 nM in test [4]; 331 nM in test [5]. Moreover, in test [4], the “Growth Inhibition Ratio (%)” value is 79%.

Consider `CN(C)C/C=C/C(=O)Nc1cc2c(Nc3ccc(OCc4ccccc4)c(Cl)c3)c(C#N)cnc2cc1OC1CCOC1` (centres unmarked) [Example 12, (E)-N-(4-(4-(BENZYLOXY)-3-CHLOROPHENYLAMINO)-3-CYANO-7-(TETRAHYDROFURAN-3-YL-OXY)QUINOLIN-6-YL)-4-(DIMETHYLAMINO)-BUT-2-ENAMIDE], for which the IC50 in test [1] was found to be 6.1 nM; in test [2], 1200 nM; in test [3], 970 nM; in test [4], 8 nM; in test [5], 202 nM.

In the case of `CN(C)C/C=C/C(=O)Nc1cc2c(Nc3ccc(OCc4ccccn4)c(Cl)c3)c(C#N)cnc2cc1O[C@H]1CCOC1` [Example 138, (S,E)-N-(4-(3-CHLORO-4-(PYRIDIN-2-YL-METHOXY)PHENYLAMINO)-3-CYANO-7-(TETRAHYDROFURAN-3-YL-OXY)QUINOLIN-6-YL)-4-(DIMETHYLAMINO)-BUT-2-ENAMIDE], the IC50 worked out at 4.4 nM in test [1]; 1000 nM in test [2]; 2200 nM in test [3]; 3 nM in test [4]; 101 nM in test [5]. For the same molecule, in test [4], the inhibition at 1 µM is 82%.

For `CN(C)C/C=C/C(=O)Nc1cc2c(Nc3ccc(OCc4cccc(F)c4)c(Cl)c3)c(C#N)cnc2cc1OC1CCOC1` (centres unmarked) [Example 9, (E)-N-(4-(4-(3-FLUOROBENZYLOXY)-3-CHLOROPHENYLAMINO)-3-CYANO-7-(TETRAHYDROFURAN-3-YL-OXY)QUINOLIN-6-YL)-4-(DIMETHYLAMINO)-BUT-2-ENAMIDE], the IC50 was 8.6 nM in test [1]; 458 nM in test [2]; 1700 nM in test [3]; 5.2 nM in test [4]; 219 nM in test [5]. Moreover, the “Growth Inhibition Ratio (%)” value in test [4] is listed as 78%.

As to `CN(C)C/C=C/C(=O)Nc1cc2c(Nc3ccc(OCc4cccc(C#N)c4)c(Cl)c3)c(C#N)cnc2cc1OC1CCOC1` (centres unmarked) [Example 15, (E)-N-(4-(4-(3-CYANOBENZYLOXY)-3-CHLOROPHENYLAMINO)-3-CYANO-7-(TETRAHYDROFURAN-3-YL-OXY)QUINOLIN-6-YL)-4-(DIMETHYLAMINO)-BUT-2-ENAMIDE], the IC50 amounted to 7.1 nM in test [1]; 1100 nM in test [2]; 1400 nM in test [3]; 8.1 nM in test [4]; 260 nM in test [5]. Further, in test [4], the inhibition at 1 µM was found to be 71%.

On to `Cc1ccccc1COc1ccc(Nc2c(C#N)cnc3cc(OC4CCOC4)c(NC(=O)/C=C/CN(C)C)cc23)cc1Cl` (centres unmarked) [Example 17, (E)-N-(4-(4-(2-METHYLBENZYLOXY)-3-CHLOROPHENYLAMINO)-3-CYANO-7-(TETRAHYDROFURAN-3-YL-OXY)QUINOLIN-6-YL)-4-(DIMETHYLAMINO)-BUT-2-ENAMIDE], for which the IC50 in test [1] is 21 nM; in test [2], 1000 nM; in test [3] it was 1500 nM; in test [4], 17 nM.

Regarding `CN(C)C/C=C/C(=O)Nc1cc2c(Nc3ccc(OCc4cccc(Cl)c4)c(Cl)c3)c(C#N)cnc2cc1OC1CCOC1` (centres unmarked) [Example 11, (E)-N-(4-(4-(3-CHLOROBENZYLOXY)-3-CHLOROPHENYLAMINO)-3-CYANO-7-(TETRAHYDROFURAN-3-YL-OXY)QUINOLIN-6-YL)-4-(DIMETHYLAMINO)-BUT-2-ENAMIDE], the IC50 is 11 nM in test [1]; 1200 nM in test [2]; 1500 nM in test [3]; 7.9 nM in test [4]; 187 nM in test [5].

For the molecule `CN(C)C/C=C/C(=O)Nc1cc2c(Nc3ccc(F)c(Cl)c3)c(C#N)cnc2cc1O[C@H]1CCOC1` [Example 142, (S,E)-N-(4-(3-CHLORO-4-FLUOROPHENYLAMINO)-3-CYANO-7-(TETRAHYDROFURAN-3-YL-OXY)QUINOLIN-6-YL)-4-(DIMETHYLAMINO)-BUT-2-ENAMIDE], the IC50 is 75 nM in test [1]; 1500 nM in test [2]; 1040 nM in test [3]; 133 nM in test [4]; 115 nM in test [5]. Besides, the inhibition at 1 µM in test [4] turned out to be 89%.

Consider `CN(C)C/C=C/C(=O)Nc1cc2c(Nc3ccc(OCc4ccccc4F)c(Cl)c3)c(C#N)cnc2cc1OC1CCOC1` (centres unmarked) [Example 8, (E)-N-(4-(4-(2-FLUOROBENZYLOXY)-3-CHLOROPHENYLAMINO)-3-CYANO-7-(TETRAHYDROFURAN-3-YL-OXY)QUINOLIN-6-YL)-4-(DIMETHYLAMINO)-BUT-2-ENAMIDE], for which the IC50 in test [1] came out at 5.6 nM; in test [2], 878 nM; in test [3], 1200 nM; in test [5], 188 nM. In addition, in test [4], the inhibition at 1 µM came to 79%.

With `CN(C)C/C=C/C(=O)Nc1cc2c(Nc3ccc(OCc4ccccc4Cl)c(Cl)c3)c(C#N)cnc2cc1OC1CCOC1` (centres unmarked) [Example 10, (E)-N-(4-(4-(2-CHLOROBENZYLOXY)-3-CHLOROPHENYLAMINO)-3-CYANO-7-(TETRAHYDROFURAN-3-YL-OXY)QUINOLIN-6-YL)-4-(DIMETHYLAMINO)-BUT-2-ENAMIDE], the IC50 was found to be 11 nM in test [1], 1000 nM in test [2], 1700 nM in test [3] and 9.9 nM in test [4].

What is called IC50 is the point on the concentration scale where inhibition reaches its midpoint. Low readings indicate greater potency in that assay, high ones weaker potency in that assay.
